Bridges are numbered along the chain shown (N, C = ends). BDB = bisdiazonium-benzidine, coupling agent to KLH
Key:
[1] = target: T1, mIL-6 (Mus musculus, UniProt P08505); assay: ELISA of antibody production against mIL-6 in DBA/2 mice immunized with mP2; format: in vivo; details: 100 μg cyclized mP2 coupled to KLH, day 54 sera, FIG. 9
T1 sequence (P08505 25-211): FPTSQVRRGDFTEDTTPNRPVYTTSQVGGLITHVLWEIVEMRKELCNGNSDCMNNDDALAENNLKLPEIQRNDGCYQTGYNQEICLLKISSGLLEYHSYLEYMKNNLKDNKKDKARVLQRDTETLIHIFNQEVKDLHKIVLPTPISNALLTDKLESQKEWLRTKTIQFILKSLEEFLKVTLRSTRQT
Method: (§1) Briefly, three groups of DBA/2 mice (Janvier, France) immunized intramuscularly four times (once in complete Freund's adjuvant (CFA), and three times in incomplete Freund's adjuvant (IFA)) every 15 days with different vaccine preparations: • 8 mice were immunized with 100 μg of the above-described cyclized mP2 peptide coupled to KLH (mP2-Bleo group) and were injected subcutaneously in the back with bleomycin • 6 mice were immunized with 100 μg of mP2 (mP2-Nacl group) and were injected subcutaneously in the back with NaCl (Negative control group) • 8 mice were group immunized with 200 μg of KLH alone (KLH-Bleo group) and were injected subcutaneously in the back with bleomycin. (Positive control group)
(§2) At day 54, the mice were killed. Sera samples were collected and the antibody production against mIL-6 was quantified by ELISA. Furthermore, skin biopsies were performed to evaluate the OH-proline production, indicative of collagen production, and histological sections from the back were also performed to evaluate dermal thickness.

[2] = target: hIL-6 (Homo sapiens, UniProt P05231); assay: ELISA cross-reactivity of sera from OF1 mice immunized with mIL-6-derived peptides, plates covered with human IL-6; format: in vivo; details: D54 sera diluted 1/500, plates covered with human IL-6
Description: Six peptides derived from murine IL-6 were chemically synthesized and coupled to a carrier protein, KLH (Keyhole Limpet Hemocyanin), five using the coupling agent bisdiazonium-benzidine (BDB) and one with glutaraldehyde. These peptides were then cyclized by the formation of disulfide bonds between cysteines (added or already present).
For each peptide, Oncins France 1 mice (OF1, Charles River Laboratories, L'Arbresle, France) free from specific pathogenic organisms were immunized by intra-muscular route with 100 μg of peptides derived from murine IL-6 mP1, mP2, mP3, mP4, mP5, and mP6 (see Table 1) in complete Freund's adjuvant (CFA) at the start of the experiment (D0) (n=4 per peptide).
Incomplete Freund's adjuvant (IFA) boosters are then given every 15 days, on D15, D30 and D45. The sera from mice on D54 are tested by ELISA with a 1/500th dilution of the serums on plates covered with murine IL-6 or human IL-6 in order to evaluate their cross-reactivity.

[3] = target: T2, murine IL-6 (Mus musculus, UniProt P08505); assay: Murine IL-6 neutralization test on murine B9 hybridomas with purified IgGs from immunized rabbits; format: cell-based; details: purified IgGs from rabbits immunized with the peptide; B9 hybridoma proliferation, XTT
T2 sequence (P08505 25-211): T1 sequence (P08505 25-211)
Method: The neutralizing ability of purified IgGs based on serum from rabbits immunized with the peptides mP1, mP2, mP3, mP4, mP5 and mP6 respectively, was tested in a murine IL-6 neutralization test. This test is based on the fact that murine B9 hybridomas proliferate in a dose-dependent manner in response to murine IL-6 (Brakenhoff et al. (1987) J. Immunol. 139:4116-21).
Plating (D0): seed a flat-bottom 96-well plate, treated for cell culture with 5000 cells per well in 50 μL of neutralization medium. (RPMI 1640 without phenol red, 5% v/v Foetal Calf Serum (FCS), 2 mM L-Glutamine, 100 U/mL Penicillin/Streptomycin, […] of β-Mercaptoethanol)
In parallel a so-called “pre-incubation” plate is produced with the desired concentration of murine IL-6, samples and commercial anti-mIL-6 antibodies used as positive control, all in a final volume of 100 μL of neutralization medium.
The pre-incubation plate is left at 37° C. for 2 hours. 50 μL per well is then transferred to the corresponding wells of the plate containing the cells, then the latter is incubated with 5% CO2 at 37° C. for 96 hours.
Development (D4): Add 50 μL of a solution of XTT (for 2,3-bis-(2-methoxy-4-nitro-5-sulfophenyl)-2H-tetrazolium-5-carboxanilide)—0.5% electron coupling reagent to each well. Leave to incubate at 37° C. for 7 hours. Reading of the optical density on a spectrophotometer set at 450 nm.

[4] = test system: DBA/2 mice; assay: Murine model of bleomycin-induced systemic sclerosis after vaccination; format: in vivo; details: for skin fibrosis (OH-proline content of skin biopsies): mP2-immunized, FIG. 10
Description: The murine model of bleomycin-induced systemic sclerosis is a well-known model of chronic inflammatory disease with main features being dermal thickness together with skin and pulmonary fibrosis due to excessive collagen production (Adamson & Bowden (1974) Am. J. Pathol. 77:185-197)
as §1
The inventors also used an additional control group composed of mice injected intraperitoneally with 100 μL (1 mg/mouse) of murine monoclonal anti IL-6 receptor antibody once a week (n=6).
The subcutaneous injections of 100 μL of bleomycin (0.5 mg/mL) were performed three days after the third boost and then every other day during three weeks in order to induce systemic sclerosis.
as §2
The collagen content was measured in the skin biopsy from each mouse by assaying hydroxyproline (OH-proline) content. OH-proline represents about 13% of collagen amino acids and is measured to evaluate collagen production. […] The absorbance is read at 560 nm.
Dermal thickness from histological sections was then measured in a blind way by two independent experts.

[5] = test system: C57BL/6 mice; assay: Murine model of chronic colitis induced by DSS after vaccination; format: in vivo
Description: Chronic colitis induced by Dextran Sodium Sulfate (DSS) is a well-known model of chronic inflammatory disease reproducing the main characteristics of the human diseases (Alex et al. (2009) Inflamm. Bowel Dis. 15:341-352).
Briefly, groups of 6 C57BL/6 mice (Charles River Laboratories, L'Arbresle, France) were formed. The mice were immunized 4 times (once with CFA and three times with IFA) every 15 days with different vaccine preparations. The mice were respectively immunized with PBS (DSS/PBS group), 50 μg per mouse of KLH (DSS/KLH group), and 100 μg per mouse of peptide mP1, mP2, mP3, mP4, mP5 and mP6 coupled with KLH (DSS/mIL-6 peptide group). A control H2O group was also included. Four days after the first booster, colitis was induced by absorption of Dextran Sodium Sulfate (DSS) in water (2%) over 7 days followed by 7 days of water. Three DSS/water cycles were thus carried out, after which the mice received water until the end of the protocol. The clinical signs of the disease appear approximately on the fifth day after the start of treatment with DSS (D26 of the protocol). The development of the disease is measured from the start of the first DSS cycle up to the end of the protocol by a disease activity index (DAI) including weight loss, the presence of blood in the stools and the texture of the stools. The clinical scores are determined as follows: for the texture of the stools a score of 0 (hard stools) to 4 (diarrhoea), for the presence of blood in the stools a score of 0 (absence) to 4 (macroscopic blood), and weight loss a score of 0 (<1%) to 4 (>20%). Each mouse is thus assigned a clinical score with a maximum score of 12.
Then, on D67, the mice are killed by cervical dislocation. The histological sections from colon distal biopsies are scored blind, according to the severity of the inflammation (0: absence, 1: slight, 2: moderate, 3: severe), the extent of the inflammation (0: absence, 1: mucosal, 2: mucosal and sub-mucosal, 3: transmural), crypt damage (0: absence, 1: one-third damaged, 2: ⅔ damaged, 3: only the surface of the epithelium intact, 4: total destruction of the crypts and epithelium). Each mouse is thus assigned a histological score with a maximum score of 10.

Chain of hIL-6 (P05231 30-212): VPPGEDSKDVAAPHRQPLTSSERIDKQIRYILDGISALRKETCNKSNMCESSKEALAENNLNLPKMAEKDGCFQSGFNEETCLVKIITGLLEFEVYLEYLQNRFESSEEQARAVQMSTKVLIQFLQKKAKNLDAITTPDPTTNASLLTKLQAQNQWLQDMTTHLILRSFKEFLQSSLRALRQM

Acetyl+C76MNNDDALAENNLKLPE92C-Y-BDB (Ac-CMNNDDALAENNLKLPECY-{BDB}; disulfide 1-18 (inferred)) [mP2, peptide derived from mIL-6 region 76-92]
development of antibodies against mIL-6 (ELISA) [1]: developed antibodies against mIL-6
cross-reactivity with the human cytokine (ELISA) [2]: apart from the antibodies directed against the peptide mP2
neutralization of the biological activity of murine IL-6 [3]: neutralize the biological activity of murine IL-6 in a dose-dependent manner
dermal thickening (histological sections) ([4]; bleomycin model, versus mice immunized with KLH only, identical with anti mIL-6 receptor group, FIG. 11): lower dermal thickening
skin fibrosis (OH-proline content of skin biopsies) ([4]; injected subcutaneously with NaCl (negative control group)): did not develop skin fibrosis
skin fibrosis (OH-proline content of skin biopsies) ([4]; injected subcutaneously with bleomycin, same efficacy as anti IL-6 receptor antibody group): protected from the development of fibrosis
histological colitis score ([5]; D67 colon distal biopsies, compared with control mice treated with PBS or KLH alone, FIG. 3): significantly reduced histological score
disease activity index (DAI) ([5]; DSS-treated C57BL/6 mice, 100 μg peptide coupled with KLH, compared with the control groups, FIG. 2): significantly reduced disease activity index
reduction of the length of the colon ([5]; DSS-treated C57BL/6 mice, compared with control mice, FIG. 4): significantly less severe reduction of the colon

— patent publication US20140322161A1, “ANTI-IL-6 VACCINE COMPOSITION” (PEPTINOV SAS, priority 2011, published 2014)
